Experimental data reported in publication PMC6798786 (Brain Communications, 2019).
Structures can show the parent of a compound that is named as a salt. Where two headings read alike, the source gives them in different places.

Key:
[1] = tested on: scn1lab mutant zebrafish; assay: locomotion (mean swim velocity) seizure-like behaviour assay in scn1lab mutant zebrafish larvae; type: in vivo, Danio rerio; conditions: for effect on seizure-like swim behaviour, commercially available compounds: three concentrations; for effect on seizure-like swim behaviour, commercially available compounds / effect on seizure-like swim behaviour, retest of independently synthesized compound: 30 and 90 min exposure; for effect on seizure-like swim behaviour, initial library screen: 100 µM or 250 µM, UCSF-synthesized compound; for effect on seizure-like swim behaviour, retest of independently synthesized compound: 10, 50, 100 and 250 µM; for change in vivo at 100 µM / change in vivo at 250 µM: Danio rerio
Method: For locomotion studies, zebrafish larvae (5 days post-fertilization) were placed into a single well of a clear flat-bottomed 96-well microplate containing embryo media. Sex determination is not possible at this stage of development. All drug screening experiments were conducted in an unbiased manner by investigators blinded to the test compounds and all files coded for post hoc analysis. The 96-well plate containing larvae was then placed inside a DanioVision box where they were allowed to acclimate (20 min; room temperature). EthoVision XT software (DanioVision, Noldus Information Technology) was used to obtain locomotion plots (10 min in duration). Seizure scoring was performed, as described ([Baraban et al., 2005]). All locomotion plots were analysed for distance travelled (in millimetres) and mean velocity (in millimetres per second). After 90 min of drug exposure larvae were examined for toxic side-effects. Compounds that decreased or stopped the larva heartbeat, or reduced or eliminated the escape response when touched, were considered toxic.
For behaviour analysis, the threshold for a change in mean swim velocity ≥40% is considered significant (>1.5× SD of 250 control treated scn1lab). Unless otherwise indicated, all data in this manuscript are presented as the mean ± standard error of the mean. […] Statistically significant differences are indicated with asterisks (*P < 0.05; **P < 0.01; ***P < 0.001). […]

[2] = biological target: human 5-HT2BR (Homo sapiens, UniProt P41595); assay: radioligand binding (NIMH PDSP); conditions: read-out: Ki 5-HT2BR
Chain of human 5-HT2BR (P41595 whole entry): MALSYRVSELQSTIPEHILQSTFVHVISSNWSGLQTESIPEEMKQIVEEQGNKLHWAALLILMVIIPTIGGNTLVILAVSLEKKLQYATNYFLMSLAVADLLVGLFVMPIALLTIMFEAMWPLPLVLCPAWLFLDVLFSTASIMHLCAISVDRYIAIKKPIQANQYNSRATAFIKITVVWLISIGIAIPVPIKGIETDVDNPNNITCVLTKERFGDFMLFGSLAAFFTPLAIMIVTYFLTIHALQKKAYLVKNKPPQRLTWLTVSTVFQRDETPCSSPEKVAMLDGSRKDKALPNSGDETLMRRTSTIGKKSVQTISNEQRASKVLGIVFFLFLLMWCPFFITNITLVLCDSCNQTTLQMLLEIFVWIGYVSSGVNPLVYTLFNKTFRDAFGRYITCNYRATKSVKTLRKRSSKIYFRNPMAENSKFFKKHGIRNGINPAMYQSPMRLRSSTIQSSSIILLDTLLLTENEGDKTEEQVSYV
Method: (§1) All in vitro binding assay and Ki data studies were performed by the US National Institute of Mental Health Psychoactive Drug Screening Program (NIMH PDSP). For these studies, drugs were screened against recombinant, stably expressed human 5-HT2AR, 5-HT2BR, 5-HT2CR and H1, as described at https://pdspdb.unc.edu/pdspWeb/ ([Besnard et al., 2012]).

[3] = biological target: T1, human 5-HT2CR (Homo sapiens, UniProt P28335); assay: radioligand binding (NIMH PDSP)
T1 sequence (P28335 33-458): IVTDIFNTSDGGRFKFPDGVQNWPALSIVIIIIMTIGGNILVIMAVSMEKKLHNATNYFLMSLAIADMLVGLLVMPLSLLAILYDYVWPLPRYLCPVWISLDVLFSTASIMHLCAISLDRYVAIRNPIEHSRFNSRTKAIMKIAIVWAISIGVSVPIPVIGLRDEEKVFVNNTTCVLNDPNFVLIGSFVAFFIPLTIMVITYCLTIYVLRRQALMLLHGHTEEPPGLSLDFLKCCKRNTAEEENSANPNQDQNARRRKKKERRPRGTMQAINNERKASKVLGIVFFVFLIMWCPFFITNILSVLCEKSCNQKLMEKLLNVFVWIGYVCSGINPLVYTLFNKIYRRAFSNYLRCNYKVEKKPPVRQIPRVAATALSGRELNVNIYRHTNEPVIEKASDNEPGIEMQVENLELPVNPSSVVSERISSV
Method: as §1

[4] = biological target: human 5-HT2AR (Homo sapiens, UniProt P28223); assay: radioligand binding (NIMH PDSP)
Chain of human 5-HT2AR (P28223 whole entry): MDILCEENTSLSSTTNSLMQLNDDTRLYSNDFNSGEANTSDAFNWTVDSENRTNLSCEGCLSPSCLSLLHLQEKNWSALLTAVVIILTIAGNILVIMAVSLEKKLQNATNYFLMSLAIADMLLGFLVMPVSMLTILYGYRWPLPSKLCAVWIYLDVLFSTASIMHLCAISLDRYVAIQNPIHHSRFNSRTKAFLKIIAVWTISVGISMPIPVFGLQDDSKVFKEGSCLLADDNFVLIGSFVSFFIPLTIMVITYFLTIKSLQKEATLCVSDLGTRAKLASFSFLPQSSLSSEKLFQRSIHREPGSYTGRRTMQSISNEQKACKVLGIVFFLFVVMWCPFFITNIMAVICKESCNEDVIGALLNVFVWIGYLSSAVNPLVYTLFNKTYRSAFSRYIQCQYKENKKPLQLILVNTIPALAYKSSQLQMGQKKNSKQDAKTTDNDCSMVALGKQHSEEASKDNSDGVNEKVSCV
Method: as §1

[5] = biological target: human H1 (Homo sapiens, UniProt P35367); assay: radioligand binding (NIMH PDSP); conditions: read-out: Ki H1
Chain of human H1 (P35367 whole entry): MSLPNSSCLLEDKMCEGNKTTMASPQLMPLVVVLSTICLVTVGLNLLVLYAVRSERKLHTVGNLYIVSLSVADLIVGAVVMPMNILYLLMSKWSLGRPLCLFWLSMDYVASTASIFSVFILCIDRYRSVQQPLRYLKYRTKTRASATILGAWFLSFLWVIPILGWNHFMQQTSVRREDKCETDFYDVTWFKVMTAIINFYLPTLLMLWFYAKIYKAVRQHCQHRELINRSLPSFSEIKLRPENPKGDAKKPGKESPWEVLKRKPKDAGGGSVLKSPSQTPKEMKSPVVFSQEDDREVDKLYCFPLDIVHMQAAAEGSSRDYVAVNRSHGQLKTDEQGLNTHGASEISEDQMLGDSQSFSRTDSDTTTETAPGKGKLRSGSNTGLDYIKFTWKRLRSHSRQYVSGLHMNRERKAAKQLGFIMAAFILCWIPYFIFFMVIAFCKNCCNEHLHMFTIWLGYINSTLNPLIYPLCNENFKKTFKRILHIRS
Method: as §1

[6] = biological target: T1, human 5-HT2CR; conditions: commercially available compounds known to bind 5-HT2BR; ref Roth et al., 2000; read-out: 5-HT2CR (nM), Table S3; cited from earlier work
[7] = recombinant, stably expressed human receptor, clemizole analogues
[8] = read-out: % change in velocity, individual larva 1 (heat map)
[9] = read-out: % change in velocity, individual larva 2 (heat map)
[10] = read-out: % change in velocity, individual larva 3 (heat map)
[11] = read-out: % change in velocity, individual larva 4 (heat map)
[12] = read-out: % change in velocity, individual larva 5 (heat map)
[13] = read-out: % change in velocity, individual larva 6 (heat map)
[14] = read-out: mean velocity change from six fish, Trial 1

## CN1CCc2cccc3c2[C@H]1Cc1ccc(O)c(O)c1-3 [apomorphine, (−)-Apomorphine hydrochloride, reference compound]
[1]
  effect on seizure-like swim behaviour, commercially available compounds: significantly increased mean swim velocity

## Nc1ccc(Cn2c(CN3CCCC3)nc3ccccc32)cc1 [Compound 14]
[1]
  effect on seizure-like swim behaviour, initial library screen: no significant effect on swim behaviour
  effect on seizure-like swim behaviour, retest of independently synthesized compound: no significant effect on the swim behaviour
[2]; [7]
  Ki: 606 nM
[3]; [7]
  Ki: > 10000 nM
[4]; [7]
  Ki: > 10000 nM
[5]; [7]
  Ki: 27 nM

## CN1CCN(Cc2nc3ccccc3n2Cc2ccc(Cl)cc2)CC1 [Compound 26]
[2]; [7]
  Ki: 20 nM
[3]; [7]
  Ki: 313 nM
[4]; [7]
  Ki: 316 nM
[5]; [7]
  Ki: 1.2 nM

## Cl.Clc1cccc(N2CCNCC2)c1 [m-CPP, reference compound]
[1]
  effect on seizure-like swim behaviour, commercially available compounds: biphasic response

## Clc1ccc(Cn2c(CN3CCCC3)cc3ccccc32)cc1 [Compound 11]
[1]; [8]
  change in vivo at 100 µM: 39.3%
  change in vivo at 250 µM: -100%
[1]; [9]
  change in vivo at 100 µM: 403%
  change in vivo at 250 µM: -100%
[1]; [10]
  change in vivo at 100 µM: 91.2%
  change in vivo at 250 µM: -100%
[1]; [11]
  change in vivo at 100 µM: 120%
  change in vivo at 250 µM: -100%
[1]; [12]
  change in vivo at 100 µM: 149%
  change in vivo at 250 µM: -100%
[1]; [13]
  change in vivo at 100 µM: 66.8%
  change in vivo at 250 µM: -100%
[1]; [14]
  change in vivo at 100 µM: 124%
  change in vivo at 250 µM: -100%
[1]; read-out: mean velocity change from six fish, Trial 2
  change in vivo at 100 µM: 124%
[2]
  Ki: 134 nM
[3]
  Ki: 248 nM
[4]
  Ki: 631 nM
[5]
  Ki: 6.4 nM

## CCCn1c(CN2CCCC2)nc2ccccc21.O=CO [Compound 5]
[1]
  effect on seizure-like swim behaviour, initial library screen: no significant effect on swim behaviour
  effect on seizure-like swim behaviour, retest of independently synthesized compound: no significant effect on the swim behaviour
[2]; [7]
  Ki: 219 nM
[3]; [7]
  Ki: > 10000 nM
[4]; [7]
  Ki: > 10000 nM
[5]; [7]
  Ki: 362 nM

## CC(N)Cc1c[nH]c2ccc(OCc3cccs3)cc12 (stereo not shown) [reference compound]
[1]
  effect on seizure-like swim behaviour, commercially available compounds: failed to reach our significance threshold
[6]
  Ki: 115 nM

## c1ccc(Cn2c(CN3CCCC3)nc3ccccc32)cc1 [Compound 3]
[2]; [7]
  Ki: 83 nM
[3]; [7]
  Ki: 292 nM
[4]; [7]
  Ki: 327 nM
[5]; [7]
  Ki: 4.8 nM

## Clc1ccc(Cn2c(CN3CCSC3)nc3ccccc32)cc1 [Compound 28]
[2]; [7]
  Ki: 464 nM
[3]; [7]
  Ki: 1080 nM
[4]; [7]
  Ki: > 10000 nM
[5]; [7]
  Ki: 44 nM

## Fc1ccc(Cn2c(CN3CCCC3)nc3ccccc32)cc1 [Compound 7]
[2]; [7]
  Ki: 46 nM
[3]; [7]
  Ki: 345 nM
[4]; [7]
  Ki: 15 nM
[5]; [7]
  Ki: 1 nM

## CC(C)C[C@H]1C(=O)N2CCC[C@H]2[C@]2(O)O[C@](NC(=O)[C@@H]3C=C4c5cccc6[nH]c(Br)c(c56)C[C@H]4N(C)C3)(C(C)C)C(=O)N12 [bromocriptine, Bromocriptine mesylate, reference compound]
[1]; 10 µM
  effect on seizure-like swim behaviour at 10 µM: significantly reduced seizure-like swim behaviour
